Measured values from US6413983B1, “Benzopyranyl heterocycle derivatives, process for preparation thereof, and pharmaceutical compositions containing them” (Dongbu Hannong Chemical Co. Ltd., priority 2000, dated 2002).

What was measured:
[1] = test system: cerebral cortical neurons; experiment: Protective activity for neuronal cells against iron-induced damage (LDH release); format: cell-based, rat; settings: 30 μM compound, 50 uM FeSO4, 24 hours, LDH reduction rate vs control
Description: From the brains of 17-18 day-old rat embryos, cerebral cortical neurons were isolated and then, cultured at 37° C. for 7-9 days in a 5% CO2 incubator. The cortical cell cultures were washed twice with a minimum essential medium (MEM) to reduce the serum concentration to 0.2% and pre-treated for 30 min with 30 μM of each of test compounds. For the experiments, the test compounds were dissolved in DMSO and diluted in a medium. At this time, the final concentration of DMSO was not allowed to exceed 0.2%. For a control group, only vehicle was applied.
After the pre-treatment with test compounds or vehicle, FeSO4 was added to a final concentration of 50 uM, and the cultures were maintained for 24 hours in a CO2 incubator. During incubation, lactate dehydrogenase (LDH) was released into the medium upon neuronal death by the oxidative toxicity of iron. The extent of neuronal damage was assessed by measuring the amount of LDH released into the media. The protective effect of the compounds of interest on neurons was evaluated by calculating the LDH reduction rate of treatment group compared with that of the control group.

rat brain homogenate = experiment: Inhibitory activity against iron-induced lipid peroxidation (MDA quantification); format: biochemical; settings: 100 μM compound, 400 μM FeCl2, 37° C., 30 min, MDA reduction rate vs control
Description: The rat brain was homogenized in a Krebs buffer (15 mM HEPES, 10 mM glucose, 140 mM NaCl, 3.6 mM KCl, 1.5 mM CaCl2, 1.4 mM KH2PO4, 0.7 mM MgCl2, pH 7.4) and the supernatant separated by centrifugation at 12,000 rpm for 10 min was used for further experiments. FeCl2 was added to a final concentration of 400 μM in the brain homogenate which was then allowed to stand at 37° C. for 30 min for the facilitation of oxidation. Each of the test compounds was added at a concentration of 100 μM and vehicle was used as a control.
Iron facilitates the oxidation of the brain homogenate to produce malondialdehyde (MDA), a lipid peroxidation product. Thus, the lipid peroxidation was determined by MDA quantification. The inhibitory effect of the test compounds against the lipid peroxidation was evaluated by calculating MDA reduction rate of the test compounds compared with that of the control group.
Typically, the MDA quantification is achieved by reacting samples with 2-thiobarbituric acid (TBA) and measuring the absorbance at 530 nm. However, this method is unsuitable to treat samples on a large scale because of a boiling step. Thus, in this experiment, N-methyl-2-phenylindole was used instead of TBA. […] Bioxytech^R LPO-586 Kit was used for MDA quantification.

[2] = test system: ischemic myocardium damage model of anesthetized rats; experiment: Cardioprotective activity in ischemic heart models of rats (LAD occlusion/reperfusion, anesthetized rats); format: in vivo, rat; settings: rat, in vivo, iv, 0.3 mg/kg
Description: After trachetomy, the rats were rendered to respire artificially at a rate of 60/min with a stroke volume of 10 ml/kg. Cannulars were inserted into the fermoral vein and the fermoral artery and used for drug administration and blood pressure measurement, respectively.
In the ischemic myocardial injury models, the body temperature has an important influence on the results. To avoid the change in the body temperature, a body temperature measuring probe was inserted into the rectum of each rat and the body temperature was constantly kept at 37° C. with the aid of a homeothermic blanket control unit.
Afterwards, during testing, a continuous measurement was made of the mean arterial blood pressures and heart rates from the rats. For the measurement of the blood pressure, a pressure transducer, such as that manufactured by Grass Ins., MA, U.S.A., identified as Model Statham P23XL, was used.
The heart rate was measured by a tachometer, such as that manufactured by Gould Inc., Ohio, U.S.A., identified as Biotachometer. In addition, all of the changes occurring were continuously recorded through the Gould 2000 chart recorder, manufactured by Gould Inc.
The left coronary artery was occluded according to the Selye H. method as follows. The rats underwent a left thoracotomy operation for partial opening of the chest and the right-side chest was pressurized by the middle finger of the left hand to push the heart out. Immediately after the left anterior descending coronary artery hereinafter referred to as (LAD) was carefully stitched using a suture needle with 5-0 silk ligature, the heart was then repositioned in the thoracic cavity while both ends of the ligature were situated outside. The opposite ligature ends were passed through a PE tube (PE100, 2.5 cm) and allowed to stand loose for 20 min for stabilization. Via the cannula inserted into the femoral vein, vehicles or drugs were administered into the rats which were rendered to stand for 30 min in order to sufficiently elicit the efficacies of the drugs.
Next, the PE tube which had the doubled strands of the ligature passed therethrough was pushed toward the heart and then, set upright by tightly pulling end regions of the ligature with a hemostatic pincette while pressing the coronary artery.
After the reocclusion of the coronary artery in accordance with the above procedure, the rats were administered with 2 ml of a 1% Evans blue through an intravenous route. Subsequently, an excess of pentobarbital was intravenously injected to kill the rats, after which the heat was removed and then, deprived of the right ventricle and both atria. The left ventricle was cut horizontally to the heart apex into 5 or 6 slices which were weighed. From the surface of each slice, images were input with the aid of a Hi-scope into a computer installed with an image analyzing program (Image Pro Plus). From the images input into the computer, the area of the normal blood stream tissue region which appeared blue in a computer monitor and the area which appeared colorless were measured. The percentage of the colorless area to the total area of each slice was calculated and multiplied by the weight of each slice to determine the area at risk (AAR) of each slice. The AAR obtained from each slice was summed for all slices and the total AAR was divided by the total weight of the left ventricle to yield % AAR, as shown in the following mathematical formula 1:
AAR(%)=(summed AAR for all slices)/(total weight of left ventricle)×100 [Mathematical Formula 1]
During this fixation, 2,3,5-triphenyltetrazolium chloride was reduced into formazan dye by the myocardial dehydrogenase and its cofactor NADH, so that the normal regions of the tissue were colored brick-red. In contrast, the infarct zones of the tissue were deficient in the dehydrogenase and its cofactor, so that no reduction occurred on the 2,3,5-triphenyltetrazolium, allowing the color to remain unchanged.

isolated rat hearts = experiment: Cardioprotective activity in isolated ischemic heart models of rats (Langendorff, global ischemia/reperfusion); settings: for EDP (MmHg) / LDVP × HR (%) / TTC: 10 μM; for EDP (MmHg): left ventricular end-diastolic pressure after 30 min reperfusion; for LDVP × HR (%): reperfusion double product as % of pretreatment DP, 30 min global ischemia, 30 min reperfusion; for TTC: time to contracture during global ischemia
Description: Male Sprague-Dawley rats weighing 300-450 g were anesthetized with sodium pentobarbital (100 mg/kg, i.p.). The tail vein was injected with heparin (1,000 U/kg) and then the trachea was intubated. […] A latex balloon filled with solvent (ethanol: water=1:1 (v/v)) and attached to a metal cannula was placed in the left ventricle through pulmonary vein and connected to a Isotec pressure transducer (H.S.E., Germany) for measurement of left ventricular pressure (LVP). […] Then, baseline contractile function, heart rate (HR), and coronary flow (CF) (extracorporeal electromagnetic flow probe, Narco Bio-System, U.S.A.) were measured. Cardiac contractile function was calculated by subtracting LVEDP from LV peak systolic pressure (LVSP), yielding developed pressure (LVDP). Double product (DP), another important parameter for assessing cardiac performance, was calculated by multiplying HR by LVDP. Throughout the experiment, all these parameters were measured, and calculated before and 10 min after pretreatment with each compound and 30 min after the onset of reperfusion with buffer. Data on reperfusion DP were further expressed as the percentage to pretreatment DP.
We then rendered the hearts globally ischemic by completely shutting off the perfusate for 30 min. Severity of ischemia was determined as the time to contracture (TTC, min) during global ischemia in which the first 5 mmHg increase in EDP was observed. Then, the hearts were reperfused and, 30 min later, contractile function (LVDP, DP) and cumulative reperfusion lactate dehydrogenase (LDH) release were measured. LDH was measured as a sensitive index for loss of cell viability with a kit supplied by Boerhinger Mannheim based on the technique of Wroblewski and LaDue [F. Wroblewski and JS.

[3] = test system: isolated rat aorta constricted with methoxamine; experiment: Vasodilation effects on isolated aorta of rats (methoxamine-constricted rings); settings: isolated rat aorta constricted with methoxamine (3 μM); 50% relaxation
Description: Male Sprague-Dawly rats (350-450 g, obtained from the Experimental Animal Team of the Korea Research Institute of Chemical Technology) were knocked unconscious by hitting the occipital region, sacrificed by cervical dislocation, and underwent thoracotomy. After being quickly removed, the thoracic aorta was deprived of the adipose tissue and cut into aortic rings of 3 mm width. The aorta was lightly rubbed with cotton club soaked in a modified Krebs Henseleit buffer (Physiological Salt Solution, PSS) to remove the inner epithelial layer therefrom.
Thereafter, 3×10^−6 M methoxamine was applied to induce an intensive constriction in the vascular smooth muscle. When the vasoconstriction induced by the methoxamine was reached and maintained to a maximum, test compounds and controls were cumulatively added to the organ baths in concentrations of 1, 3, 10 and 30 μM so as to examine the vasodilation effect.
The change rate of constriction by the addition of the drugs compared to the maximal constriction induced by methoxamine was calculated to plot a concentration-relaxation response curve.

## CCOC(=O)[C@@H]1Cc2ccccc2N1[C@@H]1c2cc(N)ccc2O[C@](C)(C(OC)OC)[C@H]1O [Example 45, 1-[(2S, 3S, 4R)-6-amino-3,4-dihydro-2-dimethoxymethyl-3-hydroxy-2-methyl-2H-1-benzopyran-4-yl]-(2S)-2,3-dihydro-1H-indole-2-carboxylic acid ethyl ester]
[1]; listed as EX. 45
  % Protection: 96%
Rat brain homogenate
  % Inhibition: 81%

## CCOC(=O)[C@@H]1Cc2ccccc2N1[C@H]1c2cc(N)ccc2O[C@](C)(C(OC)OC)[C@@H]1O [Example 43, 1-[(2S, 3R, 4S)-6-amino-3,4-dihydro-2-dimethoxymethyl-3-hydroxy-2-methyl-2H-1-benzopyran-4-yl]-(2S)-2,3-dihydro-1H-indole-2carboxylic acid ethyl ester]
[1]
  % Protection: 100%
[1]; listed as EX. 43
  % Protection: 101%
Rat brain homogenate; listed as EX. 43
  % Inhibition: 93%

## CCOC(=O)[C@H]1Cc2ccccc2N1[C@@H]1c2cc(N)ccc2O[C@](C)(C(OC)OC)[C@H]1O [Example 44, 1-[(2S, 3S, 4R)-6-amino-3,4-dihydro-2-dimethoxymethyl-3-hydroxy-2-methyl-2H-1-benzopyran-4-yl]-(2R)-2,3-dihydro-1H-indole-2-carboxylic acid ethyl ester]
[1]
  % Protection: 89%
Rat brain homogenate; listed as EX. 44
  % Inhibition: 90%

## CCOC(=O)[C@H]1Cc2ccccc2N1[C@H]1c2cc(N)ccc2O[C@](C)(C(OC)OC)[C@@H]1O [Example 42, 1-[(2S, 3R, 4S)-6-amino-3,4-dihydro-2-dimethoxymethyl-3-hydroxy-2-methyl-2H-1-benzopyran-4-yl]-(2R)-2,3-dihydro-1H-indole-2-carboxylic acid ethyl ester]
[1]
  % Protection: 100%
Rat brain homogenate; listed as EX. 42
  % Inhibition: 90%

## CCOC(=O)[C@H]1Cc2cc(OC)ccc2N1[C@H]1c2cc([N+](=O)[O-])ccc2O[C@](C)(C(OC)OC)[C@@H]1O [Example 11, 1-[(2S, 3R, 4S)-3,4-dihydro-2-dimethoxymethyl-3-hydroxy-2-methyl-6-nitro-2H-1-benzopyran-4-yl]-(2R)-2,3-dihydro-1H-5-methoxyindole-2-carboxylic acid ethyl ester]
[2]
  AAR/LV (%): 38.3%
  IZ/AAR (%): 42.1%
Isolated rat hearts
  LDH (U/g): 13.3 U/g
  EDP (MmHg): 14.7 MmHg
  LDVP × HR (%): 66.5%
  TTC: 22.9 min
[3]
  IC50: 16.5 µM

## CCOC(=O)[C@@H]1Cc2cc(OC)ccc2N1[C@@H]1c2cc([N+](=O)[O-])ccc2O[C@@](C)(C(OC)OC)[C@H]1O [Example 35, 1-[(2R, 3S, 4R)-3,4-dihydro-2-dimethoxymethyl-3-hydroxy-2-methyl-6-nitro-2H-1-benzopyran-4-yl]-(2S)-2,3-dihydro-1H-5-methoxyindole-2-carboxylic acid ethyl ester]
[2]
  AAR/LV (%): 31.6%
  IZ/AAR (%): 37.8%
Isolated rat hearts
  LDH (U/g): 23.2 U/g
  EDP (MmHg): 19 MmHg
  LDVP × HR (%): 57.3%
  TTC: 25.1 min
[3]
  IC50: > 30 µM

## CCOC(=O)c1cc2ccccc2n1[C@H]1c2cc(N)ccc2O[C@](C)(C(OC)OC)[C@@H]1O [Example 52, 1-[(2S, 3R, 4S)-6-amino-3,4-dihydro-2-dimethoxymethyl-3-hydroxy-2-methyl-2H-1-benzopyran-4-yl]-1H-indole-2-carboxylic acid ethyl ester]
[1]
  % Protection: 100%
Rat brain homogenate; listed as EX. 52
  % Inhibition: 95%

## CCOC(=O)c1cc2ccccc2n1[C@@H]1c2cc(N)ccc2O[C@](C)(C(OC)OC)[C@H]1O [Example 53, 1-[(2S, 3S, 4R)-6-amino-3,4-dihydro-2-dimethoxymethyl-3-hydroxy-2-methyl-2H-1-benzopyran-4-yl]-1H-indole-2-carboxylic acid ethyl ester]
[1]; listed as EX. 53
  % Protection: 94%
Rat brain homogenate; listed as EX. 53
  % Inhibition: 91%

## CCOC(=O)[C@@H]1Cc2cc(Cl)ccc2N1[C@H]1c2cc([N+](=O)[O-])ccc2O[C@](C)(C(OC)OC)[C@@H]1O [Example 20, 1-[(2S, 3R, 4S)-3,4-dihydro-2-dimethoxymethyl-3-hydroxy-2-methyl-6-nitro-2H-1-benzopyran-4-yl]-(2S)-2,3-dihydro-1H-5-chloroindole-2-carboxylic acid ethyl ester]
[2]
  AAR/LV (%): 35.4%
  IZ/AAR (%): 35.1%
[1]
  % Protection: 69%
[3]
  IC50: > 30 µM
